Experimental data as given in ChEMBL document CHEMBL1201862, “PubChem BioAssay data set” (2004).
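Following 48 hours of exposure in 96-well plates, responses at five concentrations were used to interpolate endpoints linearly. GI50 = concentration required for 50% inhibition of growth.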 Active and inactive are the calls of the source. Rule as the data show it: active = GI50 up to about 1.1 µM and inactive = higher.

What was measured:
Assay in all cases: DTP human tumour cell line panel, 48 h
NCI-H460 = test system: NCI-H460
SK-OV-3 = test system: SK-OV-3
U-251 = test system: U-251
MDA-MB-231 = test system: MDA-MB-231
SK-MEL-28 = test system: SK-MEL-28
HCT-15 = test system: HCT-15
ACHN = test system: ACHN
NCI-H226 = test system: NCI-H226
SN12C = test system: SN12C
M14 = test system: M14
DU-145 = test system: DU-145
SNB-75 = test system: SNB-75
MDA-N = test system: MDA-N
T47D = test system: T47D
NCI-H23 = test system: NCI-H23
MCF7 = test system: MCF7
EKVX = test system: EKVX
HL-60 = test system: HL-60
CCRF-CEM = test system: CCRF-CEM
LOX IMVI = test system: LOX IMVI
HT-29 = test system: HT-29
SR = test system: SR
SNB-19 = test system: SNB-19
K562 = test system: K562
PC-3 = test system: PC-3
HCT-116 = test system: HCT-116
IGROV-1 = test system: IGROV-1
Hs-578T = test system: Hs-578T
NCI-H522 = test system: NCI-H522
UACC-257 = test system: UACC-257
SK-MEL-5 = test system: SK-MEL-5
HOP-62 = test system: HOP-62
RPMI-8226 = test system: RPMI-8226
OVCAR-8 = test system: OVCAR-8
OVCAR-5 = test system: OVCAR-5
BT-549 = test system: BT-549
A498 = test system: A498
Malme-3M = test system: Malme-3M
KM12 = test system: KM12
SF-295 = test system: SF-295
CAKI-1 = test system: CAKI-1
UO-31 = test system: UO-31
SW-620 = test system: SW-620
OVCAR-4 = test system: OVCAR-4
TK-10 = test system: TK-10
MDA-MB-435 = test system: MDA-MB-435
COLO 205 = test system: COLO 205
RXF 393 = test system: RXF 393
OVCAR-3 = test system: OVCAR-3
NCI/ADR-RES = test system: NCI/ADR-RES
SK-MEL-2 = test system: SK-MEL-2
HOP-92 = test system: HOP-92
MOLT-4 = test system: MOLT-4
UACC-62 = test system: UACC-62
SF-268 = test system: SF-268
HCC 2998 = test system: HCC 2998
A549 = test system: A549
SF-539 = test system: SF-539
786-0 = test system: 786-0

For `O=C1c2ccccc2C(=O)c2oc(Br)cc21`, the GI50 (NCI-H460) was 845 nM (active), the GI50 (SK-OV-3) was 2.14 µM (inactive) and the GI50 (U-251) was 1.26 µM (inactive). For the same compound, the GI50 (MDA-MB-231) was 2.65 µM (inactive), the GI50 (SK-MEL-28) was 340 nM (active) and the GI50 (HCT-15) was 566 nM. For the same compound, the GI50 (ACHN) was 1.78 µM (inactive), the GI50 (NCI-H226) was 1.41 µM (inactive) and the GI50 (SN12C) was 953 nM (active). The GI50 (M14) was 161 nM (active), the GI50 (DU-145) was 214 nM (active) and the GI50 (SNB-75) was 256 nM (active). The GI50 (MDA-N) was 132 nM (active), the GI50 (T47D) was 1.73 µM (inactive) and the GI50 (NCI-H23) was 244 nM (active). For the same compound, the GI50 (MCF7) was 460 nM (active), the GI50 (EKVX) was 1.94 µM (inactive) and the GI50 (HL-60) was 378 nM (active). The GI50 (CCRF-CEM) was 1.95 µM (inactive), the GI50 (LOX IMVI) was 429 nM (active) and the GI50 (HT-29) was 1.6 µM (inactive). For the same compound, the GI50 (SR) was 1.09 µM (active), the GI50 (SNB-19) was 1.5 µM (inactive) and the GI50 (K562) was 2.12 µM (inactive). For the same compound, the GI50 (PC-3) was 2.26 µM (inactive), the GI50 (HCT-116) was 1.36 µM (inactive) and the GI50 (IGROV-1) was 1.24 µM (inactive). For the same compound, the GI50 (Hs-578T) was 327 nM (active), the GI50 (NCI-H522) was 1.55 µM (inactive) and the GI50 (UACC-257) was 266 nM (active). The GI50 (SK-MEL-5) was 144 nM (active), the GI50 (HOP-62) was 1.69 µM (inactive) and the GI50 (RPMI-8226) was 1.75 µM (inactive). For the same compound, the GI50 (OVCAR-8) was 1.38 µM (inactive), the GI50 (OVCAR-5) was 1.67 µM (inactive) and the GI50 (BT-549) was 1.16 µM (inactive). The GI50 (A498) was 1.94 µM (inactive), the GI50 (Malme-3M) was 127 nM (active) and the GI50 (KM12) was 1.23 µM (inactive). The GI50 (SF-295) was 269 nM (active), the GI50 (CAKI-1) was 1.76 µM (inactive) and the GI50 (UO-31) was 1.47 µM (inactive). For the same compound, the GI50 (SW-620) was 340 nM (active), the GI50 (OVCAR-4) was 1.87 µM (inactive) and the GI50 (TK-10) was 2.9 µM (inactive). The GI50 (MDA-MB-435) was 159 nM (active), the GI50 (COLO 205) was 1.92 µM (inactive) and the GI50 (RXF 393) was 1.49 µM (inactive). For the same compound, the GI50 (OVCAR-3) was 1.02 µM (active), the GI50 (NCI/ADR-RES) was 2.22 µM (inactive) and the GI50 (SK-MEL-2) was 578 nM (active). The GI50 (HOP-92) was 2.02 µM (inactive), the GI50 (MOLT-4) was 1.8 µM (inactive) and the GI50 (UACC-62) was 544 nM (active). The GI50 (SF-268) was 1.87 µM (inactive), the GI50 (HCC 2998) was 1.82 µM (inactive) and the GI50 (A549) was 344 nM (active). For the same compound, the GI50 (SF-539) was 684 nM (active) and the GI50 (786-0) was 1.57 µM (inactive).
